Test results: patent US5512566A, “Tricyclic compounds having affinity for the 5-HT1A receptor” (priority 1993, dated 1996)
Where a name gives a salt, the structure may show the parent alone. Read-outs that look alike come from different tables or passages of the source.

Tests used:
dopamine D2 = biological target: T1, dopamine D2 (Rattus norvegicus, UniProt P61169); experiment: Receptor Binding Assay, dopamine D2 (3H-spiperone, P2 fraction from striatum); parameters: species or system male, Wistar rats
T1 construct: P2 fraction (synaptosomal membranes) prepared from male, Wistar rats; from tissue; host or cells: rat (Wistar, male) striatum, P2 synaptosomal membranes
Procedure: The dopamine D2 and serotonin 5-HT1A binding activity of compounds was determined using a P2 fraction (synaptosomal membranes) prepared from male, Wistar rats. The D2 assay employed a P2 fraction from the striatum, the ligand ^3 H-spiperone at a concentration of 0.05 nM, and […] haloperidol as a blank determinant. […].
(§1) The data from each assay were analyzed by calculating the percent inhibition of the binding of the tritiated ligands by given concentrations of the test compound. KI values, where given, were obtained from the logit analysis of concentration-inhibition curves.

serotonin 5-HT1A = biological target: T2, serotonin 5-HT1A (Rattus norvegicus, UniProt P19327); experiment: Receptor Binding Assay, serotonin 5-HT1A (3H-8-hydroxy-DPAT, P2 fraction from cerebral cortex); parameters: species or system male, Wistar rats; conditions: known drugs, 3H-8-hydroxy-DPAT 3 nM, pH 7.5, 20 min, 25° C., read-out: KI values for some known drugs, 5-HT1A assay
T2 construct: P2 fraction (synaptosomal membranes) prepared from male, Wistar rats; from tissue; host or cells: rat (Wistar, male) cerebral cortex, P2 synaptosomal membranes
T2 sequence (P19327 1-422): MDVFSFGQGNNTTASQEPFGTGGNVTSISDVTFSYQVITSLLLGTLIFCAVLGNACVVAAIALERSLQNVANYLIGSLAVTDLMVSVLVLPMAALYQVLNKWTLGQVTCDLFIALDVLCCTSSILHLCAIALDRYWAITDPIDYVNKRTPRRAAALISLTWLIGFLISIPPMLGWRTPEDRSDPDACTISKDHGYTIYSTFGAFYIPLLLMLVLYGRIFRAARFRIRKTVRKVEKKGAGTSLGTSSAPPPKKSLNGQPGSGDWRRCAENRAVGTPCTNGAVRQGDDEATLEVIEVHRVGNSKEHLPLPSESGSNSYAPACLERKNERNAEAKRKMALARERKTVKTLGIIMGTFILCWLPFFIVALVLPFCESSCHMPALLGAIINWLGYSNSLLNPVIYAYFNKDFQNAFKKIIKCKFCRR
Procedure: The dopamine D2 and serotonin 5-HT1A binding activity of compounds was determined using a P2 fraction (synaptosomal membranes) prepared from male, Wistar rats.
as §1

[1] = 3H-spiperone 0.05 nM, rat striatum P2 fraction, pH 7.5, 45 min, 37° C., read-out: Receptor Binding, Ki, D-2

T1 sequence (P61169 whole entry): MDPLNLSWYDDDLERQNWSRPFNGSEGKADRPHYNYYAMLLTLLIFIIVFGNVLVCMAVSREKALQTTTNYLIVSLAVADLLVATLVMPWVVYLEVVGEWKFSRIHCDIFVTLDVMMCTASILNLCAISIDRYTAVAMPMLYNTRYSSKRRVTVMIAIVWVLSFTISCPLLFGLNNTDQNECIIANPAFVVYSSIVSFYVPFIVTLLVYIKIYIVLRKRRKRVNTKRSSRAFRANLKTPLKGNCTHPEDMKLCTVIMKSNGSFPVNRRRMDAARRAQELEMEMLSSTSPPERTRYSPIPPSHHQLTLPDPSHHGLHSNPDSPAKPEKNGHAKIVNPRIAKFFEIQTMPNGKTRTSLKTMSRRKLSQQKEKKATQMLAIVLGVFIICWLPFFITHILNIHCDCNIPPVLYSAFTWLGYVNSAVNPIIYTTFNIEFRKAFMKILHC

SMILES	Ki (dopamine D2; [1])	Ki (dopamine D2)	further results
O=C(c1cccc(CN2CCc3c([nH]c4ccccc34)C2)c1)N1CCCCC1 [Compound 9, 1-(3-(2-(1,2,3,4-Tetrahydro-9H-pyrido(3,4-b)indolyl)methyl)-benzoyl)piperidine Monooxalate 0.3 Hydrate]	–	374 nM	–
O=C(c1cccc(CN2CCc3c([nH]c4ccccc34)C2)c1)N1CCc2ccccc21 [Compound 11, 1-(3-(2-(1,2,3,4-Tetrahydro-9H-pyrido(3.4-b)indolyl)methyl)benzoyl)indoline Monofumarate]	–	> 1000 nM	–
Cc1ccc(N(CC2=NCCN2)c2cccc(O)c2)cc1 [phentolamine]	–	–	Ki (serotonin 5-HT1A): 59 nM

The next lines start with results.

Ki (dopamine D2; [1])	SMILES	Ki (dopamine D2)	further results
> 1000 nM	O=C(c1cccc(CN2CCN3c4ccccc4OCC3C2)c1)N1CCCCC1 (centres unmarked) [Compound 13, 1-(3-(1-(1,2,3,4,4a,5-hexahydropyrazino(1.2-c)-1,4-benzoxazinyl)methyl)benzoyl)pipridine Sesquioxalate]	–	–
> 1000 nM	O=C(c1cccc(CN2CCN3c4ccccc4OCC3C2)c1)N1CCc2ccccc21 (centres unmarked) [Compound 14, 1-(3-(3-(1,2,3,4,4a,5-Hexahydropyrazino(1,2-c)-1,4-benzoxazinyl)methyl)benzoyl)iondoline 1.2 Oxalate]	–	–
